Experiments:
E. coli AECO 1003, MDR = test: MIC of thigh model strain; type: cell-based; conditions: Escherichia coli; Table 5; E. coli MDR AECO 1003; read-out: MIC
Procedure: (§1) Minimum inhibitory concentrations (MIC) were determined by reference Clinical and Laboratory Standards Institute (CLSI) broth microdilution methods per M7-A7 [2006]. Quality control ranges utilizing E. coli ATCC 25922, P. aeruginosa ATCC 27853 and S. aureus ATCC 29213, and interpretive criteria for comparator agents were as published in CLSI M100-S17 [2007]. Briefly, serial two-fold dilutions of the test compounds were prepared at 2× concentration in Mueller Hinton Broth. The compound dilutions were mixed in 96-well assay plates in a 1:1 ratio with bacterial inoculum. The inoculum was prepared by suspension of a colony from an agar plate that was prepared the previous day. Bacteria were suspended in sterile saline and added to each assay plate to obtain a final concentration of 5×10^5 CFU/mL. The plates were incubated at 35° C. for 20 hours in ambient air.

[1] = test system: S. marcescens ASMA 1030, KPC; test: MIC of thigh model strain; type: cell-based; conditions: Serratia marcescens; Table 5; S. marcescens KPC ASMA 1030
Procedure: as §1

[2] = test system: K. pneumoniae ATCC 43816, Susceptible; test: MIC of thigh model strain; type: cell-based; conditions: Klebsiella pneumoniae, ATCC43816; Table 5; K. pneumoniae Susceptible ATCC 43816
Procedure: as §1

[3] = test system: K. pneumoniae AKPN 1109, KPC; test: MIC of thigh model strain; type: cell-based; conditions: Klebsiella pneumoniae; Table 5; K. pneumoniae KPC AKPN 1109
Procedure: as §1

[4] = test system: K. pneumoniae AKPN 1073, MDR; test: MIC of thigh model strain; type: cell-based; conditions: Klebsiella pneumoniae; Table 5; K. pneumoniae MDR AKPN 1073
Procedure: as §1

[5] = test system: S. aureus ATCC 33591, MRSA; test: MIC of thigh model strain; type: cell-based; conditions: Staphylococcus aureus; Table 5; S. aureus MRSA ATCC 33591; read-out: MIC
Procedure: as §1

[6] = test system: K. pneumoniae AKPN 1109, KPC; test: Murine neutropenic thigh model; type: in vivo
Procedure: Activity is presented as the log10 difference in CFU/thigh after 24 hours of antibiotic treatment compared to CFU/thigh just prior to antibiotic treatment (2 hours post-infection). Total dose per 24 hours is shown; dosing was q12 hours. 6 mice per group, Inoculum=8.3×10^5 CFU.
(§2) The in vivo activity of Example 1 in the mouse neutropenic thigh model (Andes and Craig. Antimicrob Agents Chemother. 2002, 46:1665-1670) was determined against seven bacterial strains including susceptible Escherichia coli and Klebsiella pneumoniae; multi-drug resistant (MDR) clinical isolates of E. coli and K. pneumoniae that display resistance to multiple antibiotics (including AGs); MRSA; and two K. pneumoniae carbapenemases (KPC)-expressing strains (see Table 5). For this efficacy model, groups of six CD-1 mice were rendered neutropenic by two intraperitoneal injections of cyclophosphamide. The first injection was 150 mg/kg three days prior to infection (day −4), and the second injection was 100 mg/kg one day prior to infection (day −1). On study day 0, animals were inoculated intramuscularly (0.1 ml) with a known number of colony forming units (CFU) of the specified bacterial strain (ATCC 25922, AECO 1003, ATCC 43816, AKPN 1073, AKPN 1109, ATCC 33591 or ASMA 1030), tailored to the virulence of each strain in the model to maximize bacterial load while avoiding mortality in the untreated control arms. Antibiotics were administered via subcutaneous injection at 2 and 14 hours after bacterial challenge. At 26 hours, infected thigh tissue was harvested, homogenized, and plated to count CFU. Untreated control animals were harvested at 2 hours post-infection to assess the initial bacterial load and at 26 hours post-infection to measure growth in the absence of antibiotic treatment.

[7] = test system: K. pneumoniae AKPN 1073, MDR; test: Murine neutropenic thigh model; type: in vivo
Procedure: FIG. 2 is a line graph showing dose-responses of Example 1, gentamicin, and imipenem (positive control) in a murine neutropenic thigh model against an AG-resistant clinical isolate of K. pneumoniae (AKPN 1073). Activity is presented as the log10 difference in CFU/thigh after 24 hours of antibiotic treatment compared to CFU/thigh just prior to antibiotic treatment (2 hours post-infection). Total dose per 24 hours is shown; dosing was q12 hours. 6 mice per group. Inoculum=1.3×10^4 CFU.
as §2

CN[C@@H]1[C@@H](O)[C@@H](O[C@@H]2[C@@H](O)[C@H](O[C@H]3OC(CNCCO)=CC[C@H]3N)[C@@H](N)C[C@H]2NC(=O)[C@@H](O)CCN)OC[C@]1(C)O [Example 1, 6′-(2-Hydroxy-ethyl)-1-(4-amino-2(S)-hydroxy-butyryl)-sisomicin]
MIC (E. coli AECO 1003, MDR): 1 µg/mL
MIC [1]: 1 µg/mL
MIC [2]: 0.5 µg/mL
MIC [3]: 0.25 to 0.5 µg/mL
MIC [4]: 0.5 µg/mL
MIC [5]: 4 to 8 µg/mL
ED50/MIC ([6]; K. pneumoniae AKPN 1109): 18-37
ED50 ([6]; Klebsiella pneumoniae, sc, neutropenic CD-1 mice, subcutaneous at 2 and 14 hours, K. pneumoniae AKPN 1109): 9.2 mg/kg
bacterial load after 24 hours of treatment versus initial bacterial load at 2 hours post-inoculation ([6]; highest test dosage, challenge 8.3×10^5 CFU AKPN 1109, FIG. 3): reduced back to the level of the initial bacterial load
ED50/MIC ([7]; K. pneumoniae AKPN 1073): 6.6
ED50 ([7]; Klebsiella pneumoniae, sc, neutropenic CD-1 mice, subcutaneous at 2 and 14 hours, K. pneumoniae AKPN 1073): 3.3 mg/kg
bacterial load after 24 hours of treatment versus initial bacterial load at 2 hours post-inoculation ([7]; two highest dosages, challenge 1.3×10^4 CFU AKPN 1073, FIG. 2): reduced to below the level of the initial bacterial load

From patent US20120214760A1, “TREATMENT OF URINARY TRACT INFECTIONS WITH ANTIBACTERIAL AMINOGLYCOSIDE COMPOUNDS” (Achaogen, Inc., priority 2009, published 2012)
